10 molecules from patent publication US9913843B2, “Protein kinase C inhibitors and uses thereof” (Rigel Pharmaceuticals, Inc., priority 2012, dated 2018) can be followed below.

The experiment concerns PKC mediated IL-2 production in human primary T cells. The experiment can be described thus: IL-2 ELISA, human primary T cell, anti CD3+CD28+ (whole cell functional assay for PKC mediated IL-2 production). Format: cell-based. Put shortly: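 IL-2 in supernatants was quantified by ELISA after 24 h at 37 °C. Before stimulation with plate-coated anti-CD3 (1 μg/ml) and anti-CD28 (5 μg/ml), T cells expanded from PBMC were exposed to compound for 1 h; the counter-screen replaced antibodies with PMA 0.5 ng/ml and ionomycin 0.1 μM (final).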

Where [1] appears, read: 24 h, human primary T cells stimulated with anti-CD3 + anti-CD28, IL-2 by ELISA, read-out: IC50 for blocking IL-2 production.
Setting [2] is: human primary T cells stimulated with anti-CD3 + anti-CD28, 24 h, IL-2 by ELISA, 8 pt, read-out: IL2 ELISA, Human primary T cell, anti-CD3 + CD28, 8 pt (IC50).

Where two headings read alike, the source gives them in different places.

Regarding `OCCOc1ccc(Nc2ncc(F)c(NC[C@@H]3CCCN4CCCC[C@H]34)n2)cc1-n1cnnn1` [Compound 138, 2-(4-((5-fluoro-4-((((1S,9aR)-octahydro-2H-quinolizin-1-yl)methyl)amino)pyrimidin-2-yl)amino)-2-(1H-tetrazol-1-yl)phenoxy)ethan-1-ol], the IC50 (in general, the point on the concentration scale where inhibition reaches its midpoint) is, setting by setting: under setting [1], less than 30000 nM; under setting [2], 49.3 nM.

`N#Cc1cccc(Nc2ncc(C(F)(F)F)c(NC[C@@H]3CCCN4CCCC[C@H]34)n2)c1` [Compound 107, 3-(4-(((1S,9aR)-octahydro-1H-quinolizin-1-yl)methylamino)-5-(trifluoromethyl)pyrimidin-2-ylamino)benzonitrile]: the IC50 under setting [1] was less than 30000 nM and the half-maximal inhibitory concentration (IC50) under setting [2] came out at 17100 nM.

Regarding `COc1ccc(Nc2ncc(N(C)C)c(NC[C@@H]3CCCN4CCCC[C@H]34)n2)cc1-n1nnnc1C` [Compound 90, N4-(((1S,9aR)-octahydro-1H-quinolizin-1-yl)methyl)-N2-(4-methoxy-3-(5-methyl-1H-tetrazol-1-yl)phenyl)-N5,N5-dimethylpyrimidine-2,4,5-triamine], the concentration for half-maximal inhibition (IC50) by setting is: under setting [1], less than 30000 nM; under setting [2], 9820 nM.

Turning to `Cc1nnnn1-c1ccc(F)c(Nc2ncc(F)c(NC[C@@H]3CCCN4CCCC[C@H]34)n2)c1` [Compound 7, 5-fluoro-N2-(2-fluoro-5-(5-methyl-1H-tetrazol-1-yl)phenyl)-N4-(((1S,9aR)-octahydro-1H-quinolizin-1-yl)methyl)pyrimidine-2,4-diamine], the half-inhibitory concentration (IC50) is, setting by setting: under setting [1], less than 30000 nM; under setting [2], 428 nM.

Turning to `COCCOCCOc1cc(F)c(Nc2ncc(C#N)c(NC[C@@H]3CCCN4CCCC[C@H]34)n2)cc1-n1nnn(C)c1=O` [Compound 133, 2-((2-fluoro-4-(2-(2-methoxyethoxyl)ethoxy)-5-(4-methyl-5-oxo-4,5-dihydro-1H-tetrazol-1-yl)phenyl)amino)-4-((((1S,9aR)-octahydro-2H-quinolizin-1-yl)methyl)amino)pyrimidine-5-carbonitrile], the IC50 is, setting by setting: under setting [1], less than 30000 nM; under setting [2], 992 nM.

Consider `Cc1nnnn1-c1cc(Nc2ncc(C#N)c(NC[C@@H]3CCCN4CCCC[C@H]34)n2)ccc1F` [Compound 114, 4-(((1S,9aR)-octahydro-1H-quinolizin-1-yl)methylamino)-2-(4-fluoro-3-(5-methyl-1H-tetrazol-1-yl)phenylamino)pyrimidine-5-carbonitrile], for which the 50% inhibitory concentration (IC50) was less than 30000 nM under setting [1] and 36.5 nM under setting [2].

Regarding `Cc1cnc(Nc2cc(-n3nnn(C)c3=O)c(C3CC3)cc2F)nc1NC[C@@H]1CCCN2CCCC[C@H]12` [Compound 61, 1-(5-(4-(((1S,9aR)-octahydro-1H-quinolizin-1-yl)methylamino)-5-methylpyrimidin-2-ylamino)-2-cyclopropyl-4-fluorophenyl)-4-methyl-1H-tetrazol-5(4H)-one], the IC50 is, setting by setting: under setting [1], less than 30000 nM; under setting [2], 1980 nM.

Regarding `Cn1nnn(-c2cc(Nc3ncc(Cl)c(NC[C@@H]4CCCN5CCCC[C@H]45)n3)c(F)cc2O)c1=O` [Compound 146, 1-(5-((5-chloro-4-((((1S,9aR)-octahydro-2H-quinolizin-1-yl)methyl)amino)pyrimidin-2-yl)amino)-4-fluoro-2-hydroxyphenyl)-4-methyl-1,4-dihydro-5H-tetrazol-5-one], the half-maximal inhibitory concentration (IC50) is less than 30000 nM under setting [1] and 1980 nM under setting [2].

Turning to `Cc1cnc(Nc2cccc(C#N)c2)nc1NC[C@@H]1CCCN2CCCC[C@H]12` [Compound 66, 3-(4-(((1S,9aR)-octahydro-1H-quinolizin-1-yl)methylamino)-5-methylpyrimidin-2-ylamino)benzonitrile], the IC50 is, setting by setting: under setting [1], less than 30000 nM; under setting [2], 1480 nM.

Turning to `Cn1nnn(-c2cc(Nc3ncc(Cl)c(NC[C@@H]4CCCN5CCCC[C@H]45)n3)c(F)cc2OCC(C)(C)O)c1=O` [Compound 155, 1-(5-((5-chloro-4-((((1S,9aR)-octahydro-2H-quinolizin-1-yl)methyl)amino)pyrimidin-2-yl)amino)-4-fluoro-2-(2-hydroxy-2-methylpropoxy)phenyl)-4-methyl-1,4-dihydro-5H-tetrazol-5-one], the IC50 is less than 30000 nM under setting [1] and 136 nM under setting [2].
